Measurements as given in ChEMBL document CHEMBL1201862, “PubChem BioAssay data set” (2004).
Activity calls are given as the source filed them.

Key:
[1] = NIH-3T3 fibroblast cytotoxicity, dose response, cytotoxicity control, cell-based, fluorescence, Alamar Blue, secondary assay (AID 2327); format: functional;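 also: NIH-3T3 mouse fibroblasts cultured with fluconazole at 8 µg/mL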
[2] = fluconazole-exposed Candida albicans growth modulators – fluorescence, retest, confirmation (AID 2467); format: functional, cell-based
[3] = biological target: T1, Sentrin-specific protease 8 (Homo sapiens, UniProt Q96LD8); format: functional;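 also: luminescence read-out of SENP8 inhibition, dose-response confirmation following an ultra-high-throughput screen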
T1 sequence (Q96LD8 whole entry): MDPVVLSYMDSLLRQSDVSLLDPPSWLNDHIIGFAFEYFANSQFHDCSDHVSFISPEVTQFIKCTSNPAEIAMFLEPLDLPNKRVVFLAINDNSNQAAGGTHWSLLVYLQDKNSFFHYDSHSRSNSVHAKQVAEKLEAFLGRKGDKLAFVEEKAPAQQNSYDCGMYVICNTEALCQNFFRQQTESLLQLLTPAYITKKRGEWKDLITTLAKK

[4] = biological target: T2, Histone-lysine N-methyltransferase NSD2 (Homo sapiens, UniProt O96028); format: biochemical
T2 sequence (O96028 whole entry): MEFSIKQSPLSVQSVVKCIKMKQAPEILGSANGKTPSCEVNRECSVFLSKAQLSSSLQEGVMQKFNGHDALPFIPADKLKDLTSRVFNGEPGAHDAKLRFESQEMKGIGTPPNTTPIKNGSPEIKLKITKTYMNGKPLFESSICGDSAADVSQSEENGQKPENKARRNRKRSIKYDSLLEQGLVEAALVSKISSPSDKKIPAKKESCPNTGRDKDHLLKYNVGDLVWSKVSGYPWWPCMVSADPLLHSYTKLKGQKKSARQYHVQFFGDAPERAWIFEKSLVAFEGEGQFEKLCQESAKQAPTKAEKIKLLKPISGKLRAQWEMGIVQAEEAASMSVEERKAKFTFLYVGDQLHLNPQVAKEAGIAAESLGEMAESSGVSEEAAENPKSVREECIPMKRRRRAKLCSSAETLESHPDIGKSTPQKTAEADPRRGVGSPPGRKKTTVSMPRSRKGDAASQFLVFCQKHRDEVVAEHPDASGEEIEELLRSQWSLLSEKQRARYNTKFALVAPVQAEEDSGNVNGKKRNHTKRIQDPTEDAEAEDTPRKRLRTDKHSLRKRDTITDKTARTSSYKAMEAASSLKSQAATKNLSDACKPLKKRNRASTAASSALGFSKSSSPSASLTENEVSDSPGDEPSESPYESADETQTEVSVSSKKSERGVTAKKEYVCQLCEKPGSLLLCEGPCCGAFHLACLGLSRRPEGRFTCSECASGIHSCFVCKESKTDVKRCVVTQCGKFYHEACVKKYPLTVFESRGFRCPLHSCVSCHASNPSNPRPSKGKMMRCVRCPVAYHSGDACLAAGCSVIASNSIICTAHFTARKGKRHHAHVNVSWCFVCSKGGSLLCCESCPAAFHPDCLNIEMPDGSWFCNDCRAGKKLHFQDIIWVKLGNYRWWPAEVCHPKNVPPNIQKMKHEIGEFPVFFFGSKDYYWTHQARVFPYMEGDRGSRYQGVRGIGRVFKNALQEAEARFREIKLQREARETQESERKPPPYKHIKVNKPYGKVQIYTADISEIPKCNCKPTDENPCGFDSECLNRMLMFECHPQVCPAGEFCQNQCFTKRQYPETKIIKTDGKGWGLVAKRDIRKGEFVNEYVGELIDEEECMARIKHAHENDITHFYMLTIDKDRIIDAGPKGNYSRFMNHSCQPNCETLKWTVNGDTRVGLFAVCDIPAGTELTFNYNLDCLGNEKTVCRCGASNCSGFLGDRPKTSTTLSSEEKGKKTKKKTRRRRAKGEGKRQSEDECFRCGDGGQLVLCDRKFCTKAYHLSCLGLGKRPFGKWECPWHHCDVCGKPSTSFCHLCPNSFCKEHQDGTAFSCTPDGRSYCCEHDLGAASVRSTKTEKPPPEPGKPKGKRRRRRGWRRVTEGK

[5] = biological target: Heat shock protein HSP 90-alpha (Homo sapiens, UniProt P07900); assay: Luminescence-based dose response biochemical high throughput screening assay for inhibitors of the Heat Shock Protein 90 (HSP90). [Related pubchem assays: 1831 (Summary AID.), 1846 (Confirmation screen.), 1789 (Primary screen.)]
[6] = biological target: T3, Apoptotic protease-activating factor 1 (Homo sapiens, UniProt O14727); format: functional
T3 sequence (O14727 whole entry): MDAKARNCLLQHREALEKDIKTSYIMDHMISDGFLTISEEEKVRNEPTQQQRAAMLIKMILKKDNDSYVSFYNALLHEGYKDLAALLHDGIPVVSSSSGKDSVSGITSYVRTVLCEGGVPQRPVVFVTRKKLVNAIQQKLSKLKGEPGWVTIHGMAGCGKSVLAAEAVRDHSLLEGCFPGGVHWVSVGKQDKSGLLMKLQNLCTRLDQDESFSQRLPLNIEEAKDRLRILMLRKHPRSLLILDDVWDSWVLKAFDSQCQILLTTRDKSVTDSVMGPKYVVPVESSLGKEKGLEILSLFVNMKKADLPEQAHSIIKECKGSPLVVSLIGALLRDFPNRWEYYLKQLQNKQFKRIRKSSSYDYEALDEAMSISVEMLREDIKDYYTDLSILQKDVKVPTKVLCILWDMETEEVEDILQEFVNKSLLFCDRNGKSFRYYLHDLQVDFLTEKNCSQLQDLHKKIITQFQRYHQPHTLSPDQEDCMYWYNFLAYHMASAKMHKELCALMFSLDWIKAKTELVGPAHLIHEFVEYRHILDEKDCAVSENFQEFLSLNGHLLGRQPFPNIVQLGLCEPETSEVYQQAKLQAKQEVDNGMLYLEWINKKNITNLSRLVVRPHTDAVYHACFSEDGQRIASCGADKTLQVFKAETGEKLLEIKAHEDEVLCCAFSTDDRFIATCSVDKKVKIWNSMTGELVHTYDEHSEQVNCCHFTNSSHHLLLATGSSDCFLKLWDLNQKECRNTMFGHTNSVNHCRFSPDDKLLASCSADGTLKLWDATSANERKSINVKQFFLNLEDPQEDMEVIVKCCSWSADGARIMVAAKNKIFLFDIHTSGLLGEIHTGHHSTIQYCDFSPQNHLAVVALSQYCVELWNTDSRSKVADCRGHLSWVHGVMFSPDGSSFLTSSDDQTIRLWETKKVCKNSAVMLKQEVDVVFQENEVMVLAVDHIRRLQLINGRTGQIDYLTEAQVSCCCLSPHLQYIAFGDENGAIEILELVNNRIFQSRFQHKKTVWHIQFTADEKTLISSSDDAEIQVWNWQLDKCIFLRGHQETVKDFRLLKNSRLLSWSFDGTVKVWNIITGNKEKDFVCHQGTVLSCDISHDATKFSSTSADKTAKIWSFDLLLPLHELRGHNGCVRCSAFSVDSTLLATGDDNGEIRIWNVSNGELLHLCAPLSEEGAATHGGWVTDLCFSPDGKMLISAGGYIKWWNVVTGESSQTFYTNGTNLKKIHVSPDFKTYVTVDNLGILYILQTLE

Cc1ccc(NC2=CC(=O)C(=O)c3ccccc32)cc1
active: EC50 [1] 20.5 µM | EC50 [2] 451 nM | IC50 [3] 21.6 µM | AC50 [4] 13 µM

O=C(O)c1ccc(S(=O)(=O)/N=C2\C=C(Nc3ccccc3F)C(=O)c3ccccc32)cc1
active: IC50 [5] 638 nM | IC50 [6] 3 µM
